The record followed here is ChEMBL document CHEMBL1833972 (Bioorg Med Chem Lett, 2011).

Converted amounts (≈) assume the structure as drawn.

Data set [1] in a line: Lipophilicity, log D of the compound. Conditions: octanol/water. In kind it is physicochemical.
Data set [2] in a line: in vitro. Conditions: rat, liver microsomes. A general note: Liver microsomes are a subcellular fraction often used to study metabolism.
A short description of data set [3]: in vitro. Conditions: human, liver microsomes.
A short description of data set [4]: Solubility of the compound. It counts as physicochemical.
The nature of data set [5]: in vitro. Conditions: rat, cytosol.
Data set [6] in a line: Thermodynamic solubility of compound at physiological pH. In kind it is physicochemical. The note with it: read-out: Therm_solubility.

`Nc1nc(C(F)(F)F)cc2c1[nH]c(=O)n2Cc1ccc(NCCN2CCCCC2)nc1` had a logD in data set [1] of 1.3. The intrinsic clearance (microsomal CLint) in data set [2] was found to be 16 µL/min/mg; in data set [3] it was 13 µL/min/mg.
The molecule `Nc1nc(C(F)(F)F)cc2c1[nH]c(=O)n2Cc1ccc(NCCN2CCCC2)nc1` yielded a log distribution coefficient (logD) in data set [1] of 0.8. Moreover, the microsomal CLint in data set [2] is less than 8.5 µL/min/mg; in data set [3], 8.5 µL/min/mg.
Take `Nc1nc(C(F)(F)F)cc2c1[nH]c(=O)n2Cc1ccnc(N2CCC[C@H]2CN2CCCC2)c1`: in data set [4], the solubility entry is “soluble”.
In the case of `Nc1nc(C(F)(F)F)cc2c1[nH]c(=O)n2Cc1ccc(OCCN2CCCC2)nc1`, in data set [4], the solubility entry is “soluble”. For the same molecule, the logD in data set [1] came out at 1.2. Besides, the microsomal CLint in data set [2] stood at 9 µL/min/mg; in data set [3], 10 µL/min/mg.
`COCCCN1CCN(c2ccc(Cn3c(=O)[nH]c4c(N)nc(C(F)(F)F)cc43)cn2)CC1`: in data set [4], the solubility result was “soluble”.
Same read-out and setting: then `Nc1nc(C(F)(F)F)cc2c1[nH]c(=O)n2Cc1cccnc1OCCN1CCCC1`, with “soluble”.
On the same count and under the same terms, then `Nc1nc(C(F)(F)F)cc2c1[nH]c(=O)n2Cc1ccc(N2CCC[C@H]2CN2CCCC2)nc1`, with “soluble”; and `CN1CCN(CC2CCCN2c2ncccc2Cn2c(=O)[nH]c3c(N)nc(C(F)(F)F)cc32)CC1` (stereo unspecified), with “soluble”.
Take `CN1CCN(CC2CCCN2c2ccc(Cn3c(=O)[nH]c4c(N)nc(C(F)(F)F)cc43)cn2)CC1` (stereo unspecified): the solubility entry in data set [4] is given as “soluble”.
In the case of `Nc1nc(C(F)(F)F)cc2c1[nH]c(=O)n2Cc1ccc(NCc2ccccc2)nc1`, in data set [1], the pH-dependent lipophilicity (logD) was determined as 1.8. Also, the half-life in data set [5] stood at 4.17 h. For the same molecule, the intrinsic metabolic clearance (microsomal CLint) in data set [2] was 16 µL/min/mg; in data set [3] it was less than 8 µL/min/mg.
Turning to `COCCNc1cc(Cn2c(=O)[nH]c3c(N)nc(C(F)(F)F)cc32)ccn1`, the solubility entry in data set [4] is “soluble”.
In the case of `COCCCN1CCN(c2ncccc2Cn2c(=O)[nH]c3c(N)nc(C(F)(F)F)cc32)CC1`, in data set [4], the solubility result is listed as “soluble”.
The same measure, in the same setting: then `COCCN1CCN(c2ncccc2Cn2c(=O)[nH]c3c(N)nc(C(F)(F)F)cc32)CC1`, with “soluble”; and `COCCCN1CCN(c2cc(Cn3c(=O)[nH]c4c(N)nc(C(F)(F)F)cc43)ccn2)CC1`, with “soluble”.
Regarding `CN(C)CCOc1ccc(Cn2c(=O)[nH]c3c(N)nc(C(F)(F)F)cc32)cn1`, the logD in data set [1] was 1.2. For the same molecule, the microsomal CLint amounted to 24 µL/min/mg in data set [2] and 22 µL/min/mg in data set [3].
For `CN1CCN(CC2CCCN2c2cc(Cn3c(=O)[nH]c4c(N)nc(C(F)(F)F)cc43)ccn2)CC1` (stereo unspecified), the solubility result in data set [4] is listed as “soluble”.
The molecule `CN1CCN(CCN(C)c2ccc(Cn3c(=O)[nH]c4c(N)nc(C(F)(F)F)cc43)cn2)CC1` came in with a pH-dependent lipophilicity (logD) in data set [1] of 1.5. Further, the microsomal CLint in data set [2] is 15 µL/min/mg; in data set [3] it was 25 µL/min/mg.
Taken in the same sequence, the figures for `CN(C)CCN1CCN(c2ccc(Cn3c(=O)[nH]c4c(N)nc(C(F)(F)F)cc43)cn2)CC1` were 0.9, less than 8.5 µL/min/mg and less than 8 µL/min/mg.
As for `COCCN1CCN(c2ccc(Cn3c(=O)[nH]c4c(N)nc(C(F)(F)F)cc43)cn2)CC1`, the solubility entry in data set [4] was “soluble”. The molecule also showed a logD in data set [1] of 2.3. Moreover, the microsomal CLint in data set [2] was found to be 9 µL/min/mg; in data set [3], 17 µL/min/mg.
On to `Nc1nc(C(F)(F)F)cc2c1[nH]c(=O)n2Cc1cccnc1N1CCC[C@H]1CN1CCCC1`, for which the solubility entry in data set [4] was “soluble”.
Same read-out and setting: then `COCCN1CCN(c2cc(Cn3c(=O)[nH]c4c(N)nc(C(F)(F)F)cc43)ccn2)CC1`, with “soluble”.
Molecule `CN(C)CCNc1ccc(Cn2c(=O)[nH]c3c(N)nc(C(F)(F)F)cc32)cn1` gave a logD in data set [1] of 0.7. In data set [5], this molecule gave a half-life of 6.17 h. Moreover, the values for the microsomal CLint in data set [2] and in data set [3] were 16 µL/min/mg and 9 µL/min/mg, respectively. Besides, the solubility thermodynamic in data set [6] was found to be 483 µg/mL (≈ 1220 µM).
`COCCNc1ncccc1Cn1c(=O)[nH]c2c(N)nc(C(F)(F)F)cc21`: the solubility result in data set [4] is given as “soluble”.
For the molecule `CCN(CC)CCN(C)c1ccc(Cn2c(=O)[nH]c3c(N)nc(C(F)(F)F)cc32)cn1`, the log distribution coefficient (logD) in data set [1] is 1.3. The figures for the microsomal CLint in data set [2] and in data set [3] were 11 µL/min/mg and 24 µL/min/mg, respectively.
In the case of `CN(C)CCN(C)c1ccc(Cn2c(=O)[nH]c3c(N)nc(C(F)(F)F)cc32)cn1`, in data set [1], the logD came out at 1.2. In addition, the intrinsic metabolic clearance (microsomal CLint) in data set [2] is 11 µL/min/mg; in data set [3], 16 µL/min/mg.
Take `COCCNc1ccc(Cn2c(=O)[nH]c3c(N)nc(C(F)(F)F)cc32)cn1`: in data set [4], the solubility entry is listed as “soluble”.
For the molecule `CN(CCN1CCCCC1)c1ccc(Cn2c(=O)[nH]c3c(N)nc(C(F)(F)F)cc32)cn1`, the log distribution coefficient (logD) in data set [1] came out at 1.8. In addition, the microsomal CLint is 13 µL/min/mg in data set [2] and 25 µL/min/mg in data set [3].
In the case of `Nc1nc(C(F)(F)F)cc2c1[nH]c(=O)n2Cc1ccnc(OCCN2CCCC2)c1`, in data set [4], the solubility result was “soluble”.
`Nc1nc(C(F)(F)F)cc2c1[nH]c(=O)n2Cc1ccc(NCCO)nc1` showed a logD in data set [1] of 1.6. This molecule came in with a half-life in data set [5] of 3.27 h. For the same molecule, the microsomal CLint in data set [2] was less than 8.5 µL/min/mg; in data set [3], less than 8 µL/min/mg.

Broadly, the logD is lipophilicity at a set pH, counting ionised and neutral species. A low value points to a more hydrophilic compound. One may read the microsomal CLint as the rate of metabolic loss divided by the concentration. A low value points to slow turnover. The term half-life denotes how long it takes for the measured level to halve. A lower half-life goes with rapid decline.
